Data reported in patent publication US8957093B2, “N-biphenylmethylindole modulators of PPARG” (The Scripps Research Institute, priority 2011, dated 2015).
Read-outs that look alike come from different tables or passages of the source.

Experiments:
[1] = molecular target: Gal-4-PPAR (human PPAR LBD fused to GAL4 DNA-binding domain) (Homo sapiens (Human), UniProt P37231); experiment: GAL4-PPARG LBD / UAS-luciferase transactivation assay in HEK 293T cells; type: cell-based; conditions: for activation at 10 µM: HEK-293T, 18 h, read-out: % transactivation at 10 μM (GAL4)
Gal-4-PPAR (human PPAR LBD fused to GAL4 DNA-binding domain), sequence (P37231 238-503): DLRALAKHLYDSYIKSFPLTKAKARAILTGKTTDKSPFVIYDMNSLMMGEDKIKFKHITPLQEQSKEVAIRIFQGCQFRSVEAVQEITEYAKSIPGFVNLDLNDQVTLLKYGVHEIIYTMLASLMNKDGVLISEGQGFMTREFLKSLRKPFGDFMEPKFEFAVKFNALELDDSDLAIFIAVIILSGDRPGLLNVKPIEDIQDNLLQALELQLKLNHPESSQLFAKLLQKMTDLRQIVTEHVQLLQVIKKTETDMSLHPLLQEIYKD

GST-PPARG-LBD = GST-PPARG-LBD (Homo sapiens (Human), UniProt P37231); experiment: Lanthascreen PPARG competitive binding assay (Invitrogen, TR-FRET); conditions: NA = not active, inc = incomplete curve; for IC50: read-out: IC50 (nM) Lantha
GST-PPARG-LBD, sequence (P37231 238-503): as above
Description: Lanthascreen PPARG Competitive Binding Assay (Invitrogen)
The assay was performed according to manufacturer protocol. A mixture of […], 5 nM Tb-GST-antibody, 5 nM Fluormone Pan-PPAR Green, and serial dilutions of the experimental compound, beginning at 10 μM downwards, was added to wells of black 384-well low-volume plates (Greiner) to a total volume of 18 μL. All dilutions were made in TR-FRET assay buffer C. DMSO at 2% final concentration was used as a no-ligand control. Experiment was performed in triplicate, and incubated for 2 hours in the dark prior to assay read in Perkin Elmer ViewLux ultra HTS microplate reader. FRET signal was measured by excitation at 340 nm and emission at 520 nm for fluorescein and 490 nm for terbium. Fold change over DMSO was calculated using GraphPad Prism Software (La Jolla, Calif.) by calculating 520 nm/490 nm ratio. Graphs were plotted as fold change of FRET signal for compound treatment over DMSO-only control.

[2] = GAL4 transactivation, HEK 293T cells, NA = not active, read-out: EC50 (nM) GAL4
[3] = Lanthascreen competitive binding
[4] = Lanthascreen PPARG competitive binding

Row | SMILES | activation at 10 µM [1] [%] | IC50 (GST-PPARG-LBD; [3]) [nM] | further results
1 | Cc1c(C)n(Cc2ccc(-c3ccccc3C(=O)O)cc2)c2ccc(C(=O)N[C@@H](C)c3cc(C(F)(F)F)ccc3F)cc12 [Example 221, (S)-4′-((5-((1-(2-fluoro-5-(trifluoromethyl)phenyl)ethyl)carbamoyl)-2,3-dimethyl-1H-indol-1-yl)methyl)-[1,1′-biphenyl]-2-carboxylic acid] | 20 | 11 | EC50 [1, 2]: 156 nM
2 | Cc1c(C)n(Cc2ccc(-c3ccccc3C(=O)O)cc2)c2ccc(C(=O)N[C@@H](C)c3ccc(C4CC4)nc3)cc12 [Example 263, (S)-4′-((5-((1-(6-cyclopropylpyridin-3-yl)ethyl)carbamoyl)-2,3-dimethyl-1H-indol-1-yl)methyl)-[1,1′-biphenyl]-2-carboxylic acid] | 20 | 59 | EC50 [1, 2]: 3760 nM
3 | Cc1c(C)n(Cc2ccc(-c3ccccc3C(=O)O)cc2)c2ccc(C(=O)N[C@@H](C)c3ccc(C4CC4)cc3)cc12 [Example 304, (S)-4′-((5-((1-(4-Cyclopropylphenyl)ethyl)carbamoyl)-2,3-dimethyl-1H-indol-1-yl)methyl)-[1,1′-biphenyl]-2-carboxylic acid] | 15 | – | EC50 ([1]; GAL4 transactivation, read-out: EC50 (nM) GAL4): 2420 nM; IC50 (GST-PPARG-LBD; [4]): 50 nM
4 | Cc1c(C)n(Cc2ccc(-c3ccccc3C(=O)O)cc2)c2ccc(C(=O)N[C@@H](C)c3cc(Cl)cc(Cl)c3)cc12 [Example 219, (S)-4′-((5-((1-(3,5-dichlorophenyl)ethyl)carbamoyl)-2,3-dimethyl-1H-indol-1-yl)methyl)-[1,1′-biphenyl]-2-carboxylic acid] | 30 | 15 | EC50 [1, 2]: 155 nM
5 | Cc1c(C)n(Cc2ccc(-c3ccccc3-c3n[nH]c(=O)o3)cc2)c2ccc(C(=O)N[C@@H](C)c3cccc(C(C)C)c3)cc12 [Example 245, (S)—N-(1-(3-isopropylphenyl)ethyl)-2,3-dimethyl-1-((2′-(5-oxo-4,5-dihydro-1,3,4-oxadiazol-2-yl)-[1,1′-biphenyl]-4-yl)methyl)-1H-indole-5-carboxamide] | 10 | 7 | EC50 [1]: 454 nM
6 | Cc1c(C)n(Cc2ccc(-c3ccccc3C(=O)O)cc2)c2ccc(C(=O)NC(C)c3cccc(C4CC4)n3)cc12 (centres unmarked) [Example 272, 4′-((5-(1-(6-cyclopropylpyridin-2-yl)ethylcarbamoyl)-2,3-dimethyl-1H-indol-1-yl)methyl)biphenyl-2-carboxylic acid] | 20 | < 1 | EC50 [1, 2]: 2 nM
7 | Cc1c(C)n(Cc2ccc(-c3ccccc3C(=O)O)cc2)c2ccc(C(=O)N[C@H](C)c3cc(C(F)(F)F)ccc3C(F)(F)F)cc12 [Example 173, (R)-4′-((5-((1-(2,5-bis(trifluoromethyl)phenyl)ethyl)carbamoyl)-2,3-dimethyl-1H-indol-1-yl)methyl)-[1,1′-biphenyl]-2-carboxylic acid] | 1 | 4 | EC50 [1, 2]: 161 nM
8 | Cc1c(F)cccc1[C@H](C)NC(=O)c1ccc2c(c1)c(C)c(C)n2Cc1ccc(-c2ccccc2C(=O)O)cc1 [Example 145, (S)-4′-((5-((1-(3-fluoro-2-methylphenyl)ethyl)carbamoyl)-2,3-dimethyl-1H-indol-1-yl)methyl)-[1,1′-biphenyl]-2-carboxylic acid] | 35 | < 1 | EC50 [1, 2]: 70 nM
9 | C[C@H](NC(=O)c1ccc2c(ccn2Cc2ccc(-c3cccc(C(=O)O)c3)cc2)c1)c1ccc([N+](=O)[O-])cc1 [Example 60, (S)-4′-((5-((1-(4-Nitrophenyl)ethyl)carbamoyl)-1H-indol-1-yl)methyl)-[1,1′-biphenyl]-3-carboxylic acid] | – | > 1000 | –
10 | Cc1c(C)n(Cc2ccc(-c3ccccc3C#N)cc2)c2ccc(C(=O)N[C@@H](C)c3ccccc3Cl)cc12 [Example 287, (S)—N-(1-(2-chlorophenyl)ethyl)-1-((2′-cyano-[1,1′-biphenyl]-4-yl)methyl)-2,3-dimethyl-1H-indole-5-carboxamide] | – | – | IC50 (nM) Lantha (GST-PPARG-LBD; [4]): inc
11 | Cc1c(C)n(Cc2ccc(-c3ccccc3C(=O)NC3CC3)cc2)c2ccc(C(=O)N[C@@H](C)c3cccc(C(C)C)c3)cc12 [Example 305, (S)-1-((2′-(Cyclopropylcarbamoyl)-[1,1′-biphenyl]-4-yl)methyl)-N-(1-(3-isopropylphenyl)ethyl)-2,3-dimethyl-1H-indole-5-carboxamide] | – | – | IC50 (GST-PPARG-LBD; [4]): 94 nM
12 | CSc1ccc(-c2ccc(Cn3ccc4cc(C(=O)N[C@@H](C)c5ccc([N+](=O)[O-])cc5)ccc43)cc2)cc1 [Example 51, (S)-1-((4′-(Methylthio)-[1,1′-biphenyl]-4-yl)methyl)-N-(1-(4-nitrophenyl)ethyl)-1H-indole-5-carboxamide] | – | > 1000 | –
13 | C[C@H](NC(=O)c1ccc2c(ccn2Cc2ccc(-c3cccc(CN)c3)cc2)c1)c1ccc([N+](=O)[O-])cc1 [Example 53, (S)-1-((3′-(Aminomethyl)-[1,1′-biphenyl]-4-yl)methyl)-N-(1-(4-nitrophenyl)ethyl)-1H-indole-5-carboxamide] | – | > 1000 | –
14 | COc1ccc(CNC(=O)c2ccc3c(c2)c(C)c(C)n3Cc2ccc(-c3ccccc3C(=O)O)cc2)cc1F [Example 111, 4′-((5-(3-fluoro-4-methoxybenzylcarbamoyl)-2,3-dimethyl-1H-indol-1-yl)methyl)biphenyl-2-carboxylic acid] | – | 13 | –
15 | Cc1c(C)n(Cc2ccc(-c3ccccc3C#N)cc2)c2ccc(C(=O)N[C@@H](C)c3ccc(C(F)(F)F)cc3)cc12 [Example 277, (S)-1-((2′-cyano-[1,1′-biphenyl]-4-yl)methyl)-2,3-dimethyl-N-(1-(4-(trifluoromethyl)phenyl)ethyl)-1H-indole-5-carboxamide] | – | – | IC50 (nM) Lantha (GST-PPARG-LBD; [4]): inc
16 | C[C@H](NC(=O)c1ccc2c(ccn2Cc2ccc(-c3ccccc3CO)cc2)c1)c1ccc([N+](=O)[O-])cc1 [Example 54, (S)-1-((2′-(Hydroxymethyl)-[1,1′-biphenyl]-4-yl)methyl)-N-(1-(4-nitrophenyl)ethyl)-1H-indole-5-carboxamide] | – | > 1000 | –
17 | CC(=O)NS(=O)(=O)c1ccccc1-c1ccc(Cn2c(C)c(C)c3cc(C(=O)N[C@@H](C)c4cccc(C(C)C)c4)ccc32)cc1 [Example 248, (S)-1-((2′-(N-acetylsulfamoyl)-[1,1′-biphenyl]-4-yl)methyl)-N-(1-(3-isopropylphenyl)ethyl)-2,3-dimethyl-1H-indole-5-carboxamide] | – | > 1000 | –
18 | Cc1c(C)n(Cc2ccc(-c3ccccc3C(=O)O)cc2)c2ccc(C(=O)N[C@@H](C)c3ccc(N)cc3)cc12 [Example 99, (S)-4′-((5-(1-(4-aminophenyl)ethylcarbamoyl)-2,3-dimethyl-1H-indol-1-yl)methyl)biphenyl-2-carboxylic acid] | – | 240 | –
19 | C[C@H](NC(=O)c1ccc2c(ccn2Cc2ccc(-c3ccccc3)cc2)c1)c1ccc([N+](=O)[O-])cc1 [Example 38, (S)-1-([1,1′-Biphenyl]-4-ylmethyl)-N-(1-(4-nitrophenyl)ethyl)-1H-indole-5-carboxamide] | – | > 1000 | –
20 | Cc1c(C)n(Cc2ccc(-c3ccccc3C#N)cc2)c2ccc(C(=O)N[C@@H](C)c3ccc(Cl)c(Cl)c3)cc12 [Example 290, (S)-1-((2′-cyano-[1,1′-biphenyl]-4-yl)methyl)-N-(1-(3,4-dichlorophenyl)ethyl)-2,3-dimethyl-1H-indole-5-carboxamide] | – | – | IC50 (nM) Lantha (GST-PPARG-LBD; [4]): inc
21 | COc1ccc([C@H](C)NC(=O)c2ccc3c(c2)c(C)c(C)n3Cc2ccc(-c3ccccc3C#N)cc2)cc1 [Example 285, (S)-1-((2′-cyano-[1,1′-biphenyl]-4-yl)methyl)-N-(1-(4-methoxyphenyl)ethyl)-2,3-dimethyl-1H-indole-5-carboxamide] | – | – | IC50 (nM) Lantha (GST-PPARG-LBD; [4]): inc
22 | Cc1c(C)n(Cc2ccc(-c3ccccc3C(=O)N3CC[C@H](O)C3)cc2)c2ccc(C(=O)N[C@@H](C)c3cccc(C(C)C)c3)cc12 [Example 306, 1-((2′-((S)-3-Hydroxypyrrolidine-1-carbonyl)-[1,1′-biphenyl]-4-yl)methyl)-N-((S)-1-(3-isopropylphenyl)ethyl)-2,3-dimethyl-1H-indole-5-carboxamide] | – | – | IC50 (GST-PPARG-LBD; [4]): > 500 nM
23 | C[C@H](NC(=O)c1ccc2c(ccn2Cc2ccc(-c3ccccc3C(=O)OC(C)(C)C)cc2)c1)c1ccc([N+](=O)[O-])cc1 [Example 55, (S)-tert-Butyl 4′-((5-((1-(4-nitrophenyl)ethyl)carbamoyl)-1H-indol-1-yl)methyl)-[1,1′-biphenyl]-2-carboxylate] | – | > 1000 | –
24 | Cc1c(C)n(Cc2ccc(-c3ccccc3C#N)cc2)c2ccc(C(=O)N[C@@H](C)c3cccc(C(C)C)c3)cc12 [Example 242, (S)-1-((2′-cyano-[1,1′-biphenyl]-4-yl)methyl)-N-(1-(3-isopropylphenyl)ethyl)-2,3-dimethyl-1H-indole-5-carboxamide] | – | – | IC50 (nM) Lantha (GST-PPARG-LBD; [3]): inc
25 | Cc1c(C)n(Cc2ccc(-c3ccccc3C#N)cc2)c2ccc(C(=O)N[C@@H](C)c3cccc(Cl)c3)cc12 [Example 281, (S)—N-(1-(3-chlorophenyl)ethyl)-1-((2′-cyano-[1,1′-biphenyl]-4-yl)methyl)-2,3-dimethyl-1H-indole-5-carboxamide] | – | – | IC50 (nM) Lantha (GST-PPARG-LBD; [4]): inc
